The subject of data set [1] is Hsp70. As to the kind of experiment: Plasma Hsp70 levels by ELISA in non-tumor-bearing mice (Example 3). The class given is in vivo. To be noted: normal (non-tumor bearing) mice; 25 mg/kg intravenously 3 times a week; compared to vehicle. How it is done: Non-tumor-bearing mice were with either vehicle alone or compound (1). The vehicle employed was 10% DMSO, 18% Cremophor RH40. […] Plasma samples were prepared from tail bleed. Plasma Hsp70 levels were determined by Enzyme-Linked Immunosorbent Assay (ELISA). Plasma Hsp70 was measured by a sandwich ELISA kit (Stressgen Bioreagents Victoria, British Columbia, CANADA) according to a modified protocol in house. In brief, Hsp70 in plasma specimens and serial concentrations of Hsp70 standard were captured onto 96-well plate on which anti-Hsp70 antibody was coated. Then captured Hsp70 was detected with a biotinylated anti-Hsp70 antibody followed by incubation with europium-conjugated streptavidin. After each incubation unbound materials were removed by washing. Finally, antibody-Hsp70 complex was measured by time resolved fluorometry of europium. Concentration of Hsp70 was calculated from a standard curve.
In general terms: In an ELISA, binding on a coated surface is turned into a signal by an enzyme label.

Data set [2] concerns Hsp70. The experiment in a line: Phase I trial, Hsp70 in plasma before and after treatment (Example 11). The class given is in vivo, human. As for the experimental part: Plasma Hsp70 was measured by a sandwich ELISA kit (Stressgen Bioreagents Victoria, British Columbia, CANADA) according to a modified protocol in house. In brief, Hsp70 in plasma specimens and serial concentrations of Hsp70 standard were captured onto 96-well plate on which anti-Hsp70 antibody was coated. Then captured Hsp70 was detected with a biotinylated anti-Hsp70 antibody followed by incubation with europium-conjugated streptavidin. After each incubation unbound materials were removed by washing. Finally, antibody-Hsp70 complex was measured by time resolved fluorometry of europium. Concentration of Hsp70 was calculated from a standard curve.

Data set [3] can be described thus: in vivo. As for the experimental part: The compounds were prepared in two formulations: Formulation A contained 10% DMSO, and 18% Cremophor RH40 in water; Formulation B contained ethanol:Cremophor EL in a 1:1 ratio.
Blood samples were taken at 30 min, 1, 2, and 4 hr after injection. Brain tissue samples were taken after blood collected at 30 min, where one mouse from each group was selected and its brain was removed for analysis.
Blood samples were combined with 3-5 mg solid DTT, after which the sample was vortexed and centrifuged at 6,000 rpm×10 min. A 50 μL aliqot of plasma was taken, followed by the addition of 50 μL 1% DTT and 150 μL CH3CN (0.1% TFA). The mixture was vortexed and centrifuged at 10,000 rpm×5 min. The 150 μL supernatant was diluted with 150 μL water. A weighed tissue sample was homogenized in PBS (1:1), then combined with 1% DTT (1:1), followed by the addition of CH3CN containing 0.1% TFA (3:1). The mixture was vortexed and centrifuged at 10,000 rpm×5 min. The 150 μL supernatant was diluted with 150 μL water. 100 μL prepared samples were subjected to HPLC, using 5-95% CH3CN (0.1% trifluoroacetic acid) as the eluent.

Data set [4] deals with K562/eGFP. As to the kind of experiment: NK cell cytotoxic activity of patients' PBMC (Example 12). The class given is in vivo, human. An excerpt:
The following procedure can be employed to assay NK cell activity in a subject. The procedure is adapted from Kantakamalakul W, Jaroenpool J, Pattanapanyasat K. A novel enhanced green fluorescent protein (EGFP)-K562 flow cytometric method for measuring natural killer (NK) cell cytotoxic activity. J Immunol Methods. 2003 Jan. 15; 272:189-197, the entire teachings of which are incorporated herein by reference.
K562 cells were transduced with retroviral vector which encode green fluorescent protein (eGFP). Stable cell line was selected with antibiotic, G418.
The subject's peripheral blood mononuclear cells (PBMCs) were prepared by clinical study sites and received in BD Vacutainer Cell Preparation Tube with sodium heparin (Product Number: 362753, Becton Dickinson, Franklin Lakes, N.J.).
Effector cells alone and target cells alone were used as controls. All tubes were incubated at 37° C. with 5% CO2 for about 3.5 hr. Ten microliters of propidium iodide (PI) at a concentration of 1 mg/mL was added t each tube including effector and target control tubes and then incubated at room temperature for 15 min.
Cytotoxic activity was analyzed with a FACSCalibur flow cytometer (Becton Dickinson). Linear amplification of the forward and side scatter (FSC/SSC) signals, as well as logarithmic amplification of eGFP and PI emission in green and red fluorescence were obtained. […]

A short description of data set [5]: Phase 1/2 study, safety (Example 12). The class given is in vivo, human. How it is done: Phase 1 (safety/PK/MTD (maximum tolerated dose) was followed by a Phase 2 randomized two arm portion. Two dose levels were evaluated in Phase 1.
Dosing was IV q 3 weeks for up to 6 cycles in the absence of dose-limiting toxicity or progression. […] The phase 2 primary endpoint is time to progression, with secondary endpoints of response rate, survival, and quality of life. Study pharmacodynamic parameters include NK cell activity and Hsp70 level.

Data set [6] can be described thus: Tissue distribution in SW female mice, intravenous (Example 1). The class given is in vivo. To be noted: mouse. As for the experimental part:
Plasma samples were prepared by combining 50 μL plasma+50 μL 1% dithiothreitol (DTT)+150 μL CH3CN (0.1% HCOOH), centrifuged at 10,000 rpm×5 min; 150 μL supernatant+90 μL H2O. Tissue samples were prepared by homogenizing a weighed tissue sample in phosphor-buffered saline (PBS, ×1)+1% DTT (×1)+CH3CN (0.1% HCOOH) (×3)), centrifuged at 10,000 rpm×5 min; 150 μL supernatant+90 μL H2O. […] The running time was 15 min.

The nature of data set [7]: Phase I trial, plasma pharmacokinetics by LC/MS (Example 11). To be noted: co-administered with Compound (1) 44-[…]^2. How it is done:
Pharmacokinetic (PK) studies were performed during cycle 1 using liquid chromatography/mass spectrometry (LC/MS) to measure both compounds in plasma. Heat shock protein 70 (Hsp70) was measured in plasma before and after treatment.

For data set [8] the following is noted: in vivo.

Values joined by “and” are separate entries in the source; they are usually repeats but may differ in a detail not shown here. Identical values can stand only once. Like-named read-outs stand apart in the source and are kept apart here.

Regarding `CN(NC(=O)CC(=O)NN(C)C(=S)c1ccccc1)C(=S)c1ccccc1` [Compound (1)], the “plasma levels of Hsp70” value in data set [1] was “increase”. Besides, the “Hsp70 concentrations, change” value in data set [2] (175 mg/m2 Compound (1) + paclitaxel 175 mg/m2, two patients) is “more than doubled”; in data set [2] (263 mg/m2 Compound (1) + paclitaxel 175 mg/m2, two patients) it was “roughly doubled”; in data set [2] (438 mg/m2 Compound (1) + paclitaxel 175 mg/m2, two patients) it was “roughly doubled”. Besides, the “percent increase in Hsp70 concentrations” value in data set [2] (263 mg/m2 Compound (1) + paclitaxel 175 mg/m2, a third patient) is reported as “more than 250%”; in data set [2] (350 mg/m2 Compound (1) + paclitaxel 175 mg/m2, all patients), “more than 200%”; in data set [2] (350 mg/m2 Compound (1) + paclitaxel 175 mg/m2, two patients) it was ≤ 500%; in data set [2] (438 mg/m2 Compound (1) + paclitaxel 175 mg/m2, another patient) it was ≤ 500%. Moreover, the “induction of Hsp70 protein in plasma, dose dependence” value in data set [2] (combined with paclitaxel) was “dose dependent”. Also, the half-life (commonly how long it takes for the measured level to halve) in data set [3] (female, SW, mouse, in vivo, po, 100 mg/kg) is 2.3 h. In addition, in data set [4] (assayed 7 days after the second dose, with carboplatin and paclitaxel), the “patients with evaluable samples showing increased NK cell activity” value was “Seven of the 8”. Further, in data set [4] (per subject, Effector/Target 80:1, dose cells empty (subjects 9-11)), the “% tumor cell lysis post-dose” value was 3.8% and 45.98%. The “adverse effects (AEs), usually Grade 1-2” value in data set [5] (Phase 1, 16 patients, with carboplatin and paclitaxel) is “arthralgia and myalgia, peripheral neuropathy, rash, nausea, and vomiting, fatigue, alopecia, edema, dehydration, constipation, and decreased blood counts”. Also, the “tolerability of the carboplatin:paclitaxel:Compound (1) combination” value in data set [5] (at the dose levels studied) was “well tolerated”.

As for `COc1ccc(OC)c(C(=S)N(C)NC(=O)C(C)C(=O)NN(C)C(=S)c2cc(OC)ccc2OC)c1` [Compound (9)], in data set [3] (per os 100 mg/kg formulation B vs intravenous 25 mg/kg formulation A, AUC 0-4 hours), the “per os AUC as % of the intravenous value at 4 hours” value is “about 30%”.

As for `CN(NC(=O)CC(=O)NN(C)C(=S)C1CC1)C(=S)C1CC1` [Compound (18)], the Kp at 30 min was 0.19 in data set [6] (brain, intravenous, 25 mg/kg, read-out: brain concentration as % of plasma concentration) and ~0.07 in data set [6] (brain, iv, first experiment, 25 mg/kg intravenously, 30 min after injection, read-out: brain concentration as % of the plasma concentration). The concentration at 30 min in data set [6] (brain, iv, first experiment, 25 mg/kg intravenously, 30 min after injection, read-out: concentration in brain) is ~2 µM; in data set [6] (kidney, iv, first experiment, 25 mg/kg intravenously, 30 min after injection, read-out: concentration in kidney) it was 50 µM; in data set [6] (liver, iv, first experiment, 25 mg/kg intravenously, 30 min after injection, read-out: concentration in liver), 33 µM; in data set [6] (spleen, iv, first experiment, 25 mg/kg intravenously, 30 min after injection, read-out: concentration in spleen), 25 µM.

In the case of `CC(=O)O[C@H]1C(=O)[C@@]2(C)[C@H]([C@H](OC(=O)c3ccccc3)[C@]3(O)C[C@H](OC(=O)[C@H](O)[C@@H](NC(=O)c4ccccc4)c4ccccc4)C(C)=C1C3(C)C)[C@]1(OC(C)=O)CO[C@@H]1C[C@@H]2O` [Paclitaxel, paclitaxel], in data set [7], the “paclitaxel Vss, dependence on the Compound (1) dose” value is “increase”; the “paclitaxel clearance, dependence on the Compound (1) dose” value is on record as “significant trend toward decreasing clearance”; the “paclitaxel terminal phase half-life, dependence on the Compound (1) dose” value is given as “without affecting”. In data set [8], the dose limiting toxicities entry is “neutropenia, arthralgia, and febrile neutropenia with mucositis”.

Values taken from patent publication US8148426B2, “Bis(thio-hydrazide amides) for increasing Hsp70 expression” (Synta Pharmaceuticals Corp., priority 2004, dated 2012).
